Test: Compound was tested for the inhibitory effect against Gamma-amino-N-butyrate transaminase from bacteria

Which Ki does the source give for `NC/C=C(\CF)C(=O)O` [(2Z)-4-ammonio-2-(fluoromethyl)but-2-enoate] here?
Its Ki is 9 µM.

Reference: BindingDB's records for doi:10.1021/jm00155a029 (1986)
